# In patent US9115092B2, “Substituted quinazoline and pyrido-pyrimidine derivatives” (Asana Biosciences, LLC, priority 2010, dated 2015):
# How the values were obtained:
# [1] = system: pS6RP(S235/236), PC3 cells; test: In-cell Western assay, pS6RP(S235/236) in PC3 cells; type: cell-based, human; conditions: Homo sapiens, PC-3, In-cell Western
# How it was run: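 Overnight-seeded PC3 cells were treated 2 h with serially diluted compound, then fixed and immunostained with phospho-specific primary antibodies and Eu-labelled secondary. Time-resolved Eu signal read at 615 nm (ex 340 nm), normalised by Hoechst 33258 staining (ex 355/em 460 nm); IC50 from sigmoidal dose-response fit.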
# [2] = molecular target: T1, PI3Kα (wild-type), P110/P85α (Homo sapiens, UniProt P42336); test: PI3 Kinase TR-FRET assay, PI3Kα (wild-type); type: biochemical
# T1 construct: made in house; host or cells: SF9 insect cells
# How it was run: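 Sf9-expressed His-purified P110/P85α (5 ng) preincubated 60 min RT with compound and PIP2 in buffer with 40 mM MgCl2, 5 mM DTT; reaction started with ATP (PIP2 and ATP both 10 μM), 30 min RT. PIP3 detected by TR-FRET displacement, 665/615 nm ratio; IC50 from dose-response curves.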
# PC3 cells [3] = test: In vivo efficacy study (tumor growth suppression), PC3 xenograft; conditions: PC3 xenograft mice, after 14 days of dosing at 40 mg/kg bid po
# Experimental: PC3 cells were cultured at 37° C. in a 5% CO2 incubator using Hams F12 K medium. Five million (5×10^6) cells were implanted subcutaneously to the right flank of athymic male mice (Harlan, age: 6-7 weeks, weight: about 20 g). Tumor bearing mice were randomized when the tumor volume reached about 100 mm^3. Ten mice were used per group. Dosage regimen of compounds of formula (I) were scheduled on the basis of the PK, PK-PD and maximum tolerated dose studies. Compounds of formula (I) were formulated using HPCD in PBS, pH 7.4 and dosed orally (dose volume, 10 mL/kg). Solutions of the compounds were prepared immediately before dosing the animals. A vehicle control and a reference compound were included along with test compounds.
# The tumor size was measured on alternate days using Vernier® calipers. Assuming tumors to be ellipsoid, the tumor volume was calculated using the formula: V=(D×d^2)/2 […]
# Changes in tumor volume (Δ volumes) for each treated (T) and control (C) group were calculated by subtracting the mean tumor volume on the first day of treatment (starting day) from the mean tumor volume on the specified observation day. […]
# Percentage tumor growth inhibition was calculated as [100−% T/C]. Percentage body weight change was calculated as [(Body weight on specified observation day−Body weight on starting day)/Body weight on starting day]×100. […]
# mTOR kinase = molecular target: T2, mTOR kinase (Homo sapiens, UniProt P42345); test: mTOR kinase TR-FRET assay; type: biochemical; conditions: read-out: mTO R
# T2 construct: purchased Millipore, USA
# How it was run: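 Compounds preincubated 60 min with mTOR (5 ng) in HEPES pH 7.5, EGTA, MnCl2; ULight-p70 S6K Thr389 peptide (50 nM) and ATP (20 μM) then added, 60 min at room temperature. EDTA-stopped, Eu-anti-phospho antibody detection by TR-FRET (665/615 nm); IC50 from variable-slope sigmoidal fit.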
# PC3 cells [4] = test: XTT assay for cell viability, PC3 cells; type: cell-based, human; conditions: Homo sapiens, PC-3, cell viability
# How it was run: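 PC3 cells seeded at 1000 cells/well, grown 24 h, then exposed to serial dilutions of compound for 96 h. Viability read by XTT dye at 37° C, absorbance 465 nm. EC50 from sigmoidal dose-response fit.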
# T1 sequence (P42336 whole entry): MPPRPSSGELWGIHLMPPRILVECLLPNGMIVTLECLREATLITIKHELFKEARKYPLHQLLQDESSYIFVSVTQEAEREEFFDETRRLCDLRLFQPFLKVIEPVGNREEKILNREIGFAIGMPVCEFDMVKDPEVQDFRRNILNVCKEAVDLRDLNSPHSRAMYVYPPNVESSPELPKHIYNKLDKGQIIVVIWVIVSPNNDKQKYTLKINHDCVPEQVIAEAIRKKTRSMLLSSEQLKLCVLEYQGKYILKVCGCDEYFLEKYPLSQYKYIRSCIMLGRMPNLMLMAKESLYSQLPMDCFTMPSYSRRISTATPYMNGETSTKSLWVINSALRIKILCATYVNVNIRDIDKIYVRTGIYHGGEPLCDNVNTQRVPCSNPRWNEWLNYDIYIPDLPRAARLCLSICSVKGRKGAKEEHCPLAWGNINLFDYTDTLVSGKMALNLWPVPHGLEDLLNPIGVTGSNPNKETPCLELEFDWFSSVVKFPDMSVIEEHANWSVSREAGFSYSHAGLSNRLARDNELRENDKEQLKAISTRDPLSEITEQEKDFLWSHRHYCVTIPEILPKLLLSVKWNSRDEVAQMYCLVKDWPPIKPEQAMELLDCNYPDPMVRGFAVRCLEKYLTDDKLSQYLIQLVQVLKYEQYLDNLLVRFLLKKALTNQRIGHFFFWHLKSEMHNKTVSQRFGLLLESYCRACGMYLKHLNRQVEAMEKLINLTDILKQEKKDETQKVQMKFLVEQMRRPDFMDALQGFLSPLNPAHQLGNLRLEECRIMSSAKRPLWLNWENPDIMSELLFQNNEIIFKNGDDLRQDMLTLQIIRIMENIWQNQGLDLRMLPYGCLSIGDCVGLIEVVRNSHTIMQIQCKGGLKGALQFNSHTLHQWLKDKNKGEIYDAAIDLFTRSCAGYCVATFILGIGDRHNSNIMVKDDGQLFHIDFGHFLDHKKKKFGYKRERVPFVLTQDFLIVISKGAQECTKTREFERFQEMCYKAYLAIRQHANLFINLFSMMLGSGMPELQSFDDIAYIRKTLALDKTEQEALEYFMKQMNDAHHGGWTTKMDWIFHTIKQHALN
# T1 sequence (P27986 whole entry partner): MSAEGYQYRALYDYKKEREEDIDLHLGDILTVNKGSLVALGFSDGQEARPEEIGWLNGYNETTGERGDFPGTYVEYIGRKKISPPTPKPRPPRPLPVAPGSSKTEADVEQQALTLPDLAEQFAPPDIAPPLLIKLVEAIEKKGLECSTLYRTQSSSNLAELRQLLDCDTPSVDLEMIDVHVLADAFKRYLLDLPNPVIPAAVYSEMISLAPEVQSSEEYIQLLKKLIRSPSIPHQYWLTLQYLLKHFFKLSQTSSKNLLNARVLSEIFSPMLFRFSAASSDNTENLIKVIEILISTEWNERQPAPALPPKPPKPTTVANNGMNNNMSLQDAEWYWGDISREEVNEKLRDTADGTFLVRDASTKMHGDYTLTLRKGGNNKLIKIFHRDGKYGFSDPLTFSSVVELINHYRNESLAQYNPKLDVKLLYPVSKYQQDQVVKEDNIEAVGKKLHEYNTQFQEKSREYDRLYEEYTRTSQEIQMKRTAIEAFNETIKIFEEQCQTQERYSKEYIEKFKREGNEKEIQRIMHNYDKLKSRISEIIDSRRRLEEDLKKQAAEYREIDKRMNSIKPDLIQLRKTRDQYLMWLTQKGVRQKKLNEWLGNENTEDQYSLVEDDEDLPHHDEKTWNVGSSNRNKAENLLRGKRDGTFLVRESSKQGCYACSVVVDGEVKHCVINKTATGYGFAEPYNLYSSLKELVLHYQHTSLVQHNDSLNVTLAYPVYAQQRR
IC50 [1] [nM],IC50 [2] [nM],IC50 (mTOR kinase) [nM],IC50 (PC3 cells [4]) [nM],Structure (SMILES),tumor growth inhibition relative to vehicle control group (PC3 cells [3])
201 to 10000,< 50,< 50,201 to 10000,"CN(C)C(=O)c1ccc(NC(=O)Nc2ccc(-c3nc(N4CCOCC4)c4ncc(-c5cnn(C)c5)cc4n3)cc2F)cc1 [Example 82, 4-(3-(2-fluoro-4-(7-(1-methyl-1H-pyrazol-4-yl)-4-morpholino-pyrido[3,2-d]pyrimidin-2-yl)phenyl)ureido)-N,N-dimethyl-benzamide]",about 60%
201 to 10000,< 50,< 50,201 to 10000,"CN(C)C(=O)c1ccc(NC(=O)Nc2ccc(-c3nc(N4CCOCC4)c4ccc(-c5ccc(CO)o5)cc4n3)cc2)cc1 [Example 183, 4-(3-(4-(7-(5-(hydroxymethyl)furan-2-yl)-4-morpholino-quinazolin-2-yl)phenyl)ureido)-N,N-dimethyl-benzamide]",about 60%
